Values of other authors, collected in patent publication US20090117079A1, “METHODS AND MATERIALS FOR TREATING OR PREVENTING DISEASES/DISORDERS MEDIATED BY ALCOHOL DEHYDROGENASE” (priority 2007, published 2009).

Tested on: alcohol dehydrogenase (ADH I)
Details: competitive inhibition of ADH I in humans; affinity of ethanol relative to methanol

ethanol/methanol affinity ratio: 10/1
Structure (SMILES): CCO [ethanol]
